“Also recorded” adds a separate entry of the source.

For this test, the system named is hVEGF-A-#33 cell line. In words: Screening for diversification-promoting compounds by FCM (hIgG+_hVEGF-A− population). Particulars: hVEGF-A-#33 cells expressing human IgG, versus negative control CS(−). Format: cell-based, chicken. Here is the method: Frozen stocks of the hVEGF-A #33 cell line and the hVEGF-A #44 cell line (3.0×10^6 cells) were each awaken with a CS(-) medium, using a 25 cm^2 Flask (Corning, 430639), and were then cultured in a CO2 incubator (SANYO CO2 Incubator MCO-20AIC, 39.5° C., 5% CO2). On the following day, the cells were seeded on a 6-well dish (Nunc, 140675) to a cell density of 1.0×10^4 cells/mL (wherein the cell concentration and the survival rate were measured using CASY cell counter (Nepa Gene)). The cells were cultured in a CS(+) medium, in the presence or absence of a PI3Kα inhibitor ([…]: 10 μM, PI3Kα Inhibitor 2: 500 nM). Moreover, after the cells had been cultured for 2 days, individual samples were subcultured under the same conditions to result in a cell density of 1.0×10^4 cells/mL. Further, after completion of the culture for 3 days, individual samples were subcultured under the same conditions to result in a cell density of 6.0×10^4 cells/mL, and the culture was continued. After completion of the culture for 2 days (Day 7 of the culture), individual samples were centrifuged to remove a supernatant, and the residue was then suspended in a CS(+) medium supplemented with 1 μM FK-506 (hereinafter referred to as a “CS/FK medium”). The suspension was centrifuged again to remove a supernatant. This washing step was carried out repeatedly twice, and individual samples were then suspended in a CS/FK medium supplemented with AF647-labeled hVEGF-A (10 nM) and 2,000-fold diluted Goat Anti-Human IgG-PE. The light was shielded, and the obtained suspension was then reacted at 4° C. for 30 min. After completion of the staining, the reaction mixture was washed with a CS/FK medium twice, and each sample was then suspended in the CS/FK medium. Thereafter, using FACS Aria Fusion (BD), FCM and single cell sorting was carried out. Dead cells were removed using FSC-SSC plot. A plot, in which the vertical axis indicated AF647 (AF647-labeled hVEGF-A) and the longitudinal axis indicated PE (Goat Anti-Human IgG-PE), was developed, and the percentage of PE+(hIgG+)/AF647-(hVEGF-A-) cells was then calculated. In order to make a comparison regarding the number of cells with improved antigen-binding ability according to Affinity Maturation under individual conditions, Affinity Maturation Gate was established according to the following criteria. First, the plot was converted to a contour plot in FCM analysis, and a trapezoid gate having an inclination that was in parallel with the contour of a population in which the most cells were gathered (hereinafter referred to as a “main population”) was established. […] At that time, the vertex of the trapezoid gate was set to be overlapped with the mean value MFI of the main population, and then, a cell population having low antigen-binding ability and a cell population having a low expression level of antibody were set not to enter the gate. The percentage of clones with improved antigen-binding ability was calculated by counting the number of cells existing in this Affinity Maturation Gate and then dividing the obtained value by the total number of the analyzed cells. […]

With `Cc1nc(NC(=O)N2CCC[C@H]2C(N)=O)sc1-c1csc(C(C)(C)C)n1` [A66], the “percentage of hIgG+_hVEGF-A− cell population (diversification-promoting effect)” value was “increased in comparison to the negative control (CS(−)); also recorded: highest diversification-promoting effects”.

The values are drawn from US11572402B2, “Method for promoting diversification of antibody variable region” (Chiome Bioscience Inc., priority 2017, dated 2023).
